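1) Cells in 96-well plates. 2) Compound, 48 h, 5 concentrations. 3) Linear interpolation between surrounding doses. 4) Unreached endpoint = highest concentration. GI50 = concentration required for 50% inhibition of growth.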 Active and inactive are the calls of the source. Rule as the data show it: active = GI50 up to about 1.1 µM and inactive = higher.
Columns and labels:
Assay in all cases: NCI-60 cell line screen, 48 h
NCI-H226 = test system: NCI-H226
NCI-H460 = test system: NCI-H460
K562 = test system: K562
PC-3 = test system: PC-3
RPMI-8226 = test system: RPMI-8226
MDA-N = test system: MDA-N
MDA-MB-231 = test system: MDA-MB-231
SK-OV-3 = test system: SK-OV-3
SF-268 = test system: SF-268
SN12C = test system: SN12C
MDA-MB-435 = test system: MDA-MB-435
COLO 205 = test system: COLO 205
NCI-H522 = test system: NCI-H522
UACC-257 = test system: UACC-257
A549 = test system: A549
CAKI-1 = test system: CAKI-1
ACHN = test system: ACHN
IGROV-1 = test system: IGROV-1
OVCAR-8 = test system: OVCAR-8
MOLT-4 = test system: MOLT-4
Malme-3M = test system: Malme-3M
MCF7 = test system: MCF7
OVCAR-3 = test system: OVCAR-3
RXF 393 = test system: RXF 393
HOP-62 = test system: HOP-62
TK-10 = test system: TK-10
786-0 = test system: 786-0
SK-MEL-2 = test system: SK-MEL-2
LOX IMVI = test system: LOX IMVI
SNB-19 = test system: SNB-19
SR = test system: SR
M14 = test system: M14
T47D = test system: T47D
U-251 = test system: U-251
CCRF-CEM = test system: CCRF-CEM
DU-145 = test system: DU-145
UACC-62 = test system: UACC-62
HL-60 = test system: HL-60
HCT-15 = test system: HCT-15
OVCAR-5 = test system: OVCAR-5
HCC 2998 = test system: HCC 2998
UO-31 = test system: UO-31
HT-29 = test system: HT-29
A498 = test system: A498
SW-620 = test system: SW-620
SNB-75 = test system: SNB-75
NCI-H23 = test system: NCI-H23
BT-549 = test system: BT-549
EKVX = test system: EKVX
SK-MEL-5 = test system: SK-MEL-5
Hs-578T = test system: Hs-578T
SF-539 = test system: SF-539
SK-MEL-28 = test system: SK-MEL-28
KM12 = test system: KM12
HCT-116 = test system: HCT-116
SF-295 = test system: SF-295
OVCAR-4 = test system: OVCAR-4
NCI/ADR-RES = test system: NCI/ADR-RES
HOP-92 = test system: HOP-92

For `CC(C)OP(=O)(OC(C)C)C(C(C)C)N(C)/C(N)=N\C1=NC(C(F)(F)F)(C(F)(F)F)N=C(C(C(F)(F)F)C(F)(F)F)O1` (stereo not drawn), the GI50 (NCI-H226) was 2.11 µM (inactive), the GI50 (NCI-H460) was 2.64 µM (inactive) and the GI50 (K562) was 1.76 µM (inactive). The GI50 (PC-3) was 2.56 µM (inactive), the GI50 (RPMI-8226) was 1.97 µM (inactive) and the GI50 (MDA-N) was 2.14 µM (inactive). For the same molecule, the GI50 (MDA-MB-231) was 1.99 µM (inactive), the GI50 (SK-OV-3) was 5.4 µM (inactive) and the GI50 (SF-268) was 2.62 µM (inactive). For the same molecule, the GI50 (SN12C) was 3.15 µM (inactive), the GI50 (MDA-MB-435) was 1.8 µM (inactive) and the GI50 (COLO 205) was 1.8 µM (inactive). The GI50 (NCI-H522) was 1.41 µM (inactive), the GI50 (UACC-257) was 3.05 µM (inactive) and the GI50 (A549) was 2.88 µM (inactive). For the same molecule, the GI50 (CAKI-1) was 3.12 µM (inactive), the GI50 (ACHN) was 2.59 µM (inactive) and the GI50 (IGROV-1) was 2.39 µM (inactive). For the same molecule, the GI50 (OVCAR-8) was 1.99 µM (inactive), the GI50 (MOLT-4) was 1.49 µM (inactive) and the GI50 (Malme-3M) was 4.51 µM (inactive). The GI50 (MCF7) was 3.79 µM (inactive), the GI50 (OVCAR-3) was 3.27 µM (inactive) and the GI50 (RXF 393) was 1.6 µM (inactive). The GI50 (HOP-62) was 3.96 µM (inactive), the GI50 (TK-10) was 3.61 µM (inactive) and the GI50 (786-0) was 3.7 µM (inactive). For the same molecule, the GI50 (SK-MEL-2) was 9.44 µM (inactive), the GI50 (LOX IMVI) was 1.79 µM (inactive) and the GI50 (SNB-19) was 11.9 µM (inactive). The GI50 (SR) was 1.9 µM (inactive), the GI50 (M14) was 1.41 µM (inactive) and the GI50 (T47D) was 3.01 µM (inactive). For the same molecule, the GI50 (U-251) was 3.08 µM (inactive), the GI50 (CCRF-CEM) was 0.664 µM (active) and the GI50 (DU-145) was 6.9 µM (inactive). For the same molecule, the GI50 (UACC-62) was 2.01 µM (inactive), the GI50 (HL-60) was 1.12 µM (inactive) and the GI50 (HCT-15) was 3.75 µM. The GI50 (OVCAR-5) was 2.55 µM (inactive), the GI50 (HCC 2998) was 4.91 µM (inactive) and the GI50 (UO-31) was 4.47 µM (inactive). The GI50 (HT-29) was 2.46 µM (inactive), the GI50 (A498) was 5.2 µM (inactive) and the GI50 (SW-620) was 2.28 µM (inactive). The GI50 (SNB-75) was 2.42 µM (inactive), the GI50 (NCI-H23) was 3.61 µM (inactive) and the GI50 (BT-549) was 2.79 µM (inactive). For the same molecule, the GI50 (EKVX) was 3.66 µM (inactive), the GI50 (SK-MEL-5) was 1.56 µM (inactive) and the GI50 (Hs-578T) was 4.99 µM (inactive). For the same molecule, the GI50 (SF-539) was 3.75 µM (inactive), the GI50 (SK-MEL-28) was 3.18 µM (inactive) and the GI50 (KM12) was 3.4 µM (inactive). The GI50 (HCT-116) was 2.31 µM (inactive) and the GI50 (SF-295) was 3.66 µM (inactive).
`O=C1C2CC=CCC2C(=O)N1n1c(Cc2ccccc2)n[nH]c1=O` (stereo not drawn) was tested, and the GI50 (NCI-H226) was > 100 µM (inactive), the GI50 (NCI-H460) was > 100 µM (inactive) and the GI50 (K562) was > 100 µM (inactive). The GI50 (PC-3) was > 100 µM (inactive), the GI50 (RPMI-8226) was > 100 µM (inactive) and the GI50 (MDA-N) was > 100 µM (inactive). For the same molecule, the GI50 (MDA-MB-231) was > 100 µM (inactive), the GI50 (SK-OV-3) was > 100 µM (inactive) and the GI50 (SF-268) was > 100 µM (inactive). For the same molecule, the GI50 (SN12C) was > 100 µM (inactive), the GI50 (MDA-MB-435) was > 100 µM (inactive) and the GI50 (COLO 205) was > 100 µM (inactive). For the same molecule, the GI50 (NCI-H522) was > 100 µM (inactive), the GI50 (UACC-257) was > 100 µM (inactive) and the GI50 (A549) was > 100 µM (inactive). For the same molecule, the GI50 (CAKI-1) was > 100 µM (inactive), the GI50 (ACHN) was > 100 µM (inactive) and the GI50 (IGROV-1) was > 100 µM (inactive). For the same molecule, the GI50 (OVCAR-8) was > 100 µM (inactive), the GI50 (MOLT-4) was > 100 µM (inactive) and the GI50 (Malme-3M) was > 100 µM (inactive). The GI50 (MCF7) was > 100 µM (inactive), the GI50 (OVCAR-3) was > 100 µM (inactive) and the GI50 (RXF 393) was > 100 µM (inactive). For the same molecule, the GI50 (HOP-62) was > 100 µM (inactive), the GI50 (TK-10) was > 100 µM (inactive) and the GI50 (786-0) was > 100 µM (inactive). The GI50 (SK-MEL-2) was > 100 µM (inactive), the GI50 (LOX IMVI) was > 100 µM (inactive) and the GI50 (SNB-19) was > 100 µM (inactive). The GI50 (SR) was > 100 µM (inactive), the GI50 (M14) was > 100 µM (inactive) and the GI50 (T47D) was > 100 µM (inactive). The GI50 (OVCAR-4) was > 100 µM (inactive), the GI50 (U-251) was > 100 µM (inactive) and the GI50 (CCRF-CEM) was > 100 µM (inactive). The GI50 (UACC-62) was > 100 µM (inactive), the GI50 (HCT-15) was over 100 µM and the GI50 (NCI/ADR-RES) was > 100 µM (inactive). For the same molecule, the GI50 (OVCAR-5) was > 100 µM (inactive), the GI50 (HCC 2998) was > 100 µM (inactive) and the GI50 (UO-31) was > 100 µM (inactive). The GI50 (HT-29) was > 100 µM (inactive), the GI50 (HOP-92) was > 100 µM (inactive) and the GI50 (A498) was > 100 µM (inactive). The GI50 (SW-620) was > 100 µM (inactive), the GI50 (NCI-H23) was > 100 µM (inactive) and the GI50 (BT-549) was > 100 µM (inactive). For the same molecule, the GI50 (EKVX) was > 100 µM (inactive), the GI50 (SK-MEL-5) was > 100 µM (inactive) and the GI50 (Hs-578T) was > 100 µM (inactive). For the same molecule, the GI50 (SF-539) was > 100 µM (inactive), the GI50 (KM12) was > 100 µM (inactive) and the GI50 (HCT-116) was > 100 µM (inactive). The GI50 (SF-295) was > 100 µM (inactive).
In the case of `CN(/N=C/c1ccccn1)C1=NCCCN1`, the GI50 (NCI-H226) was > 100 µM (inactive), the GI50 (NCI-H460) was > 100 µM (inactive) and the GI50 (K562) was > 100 µM (inactive). For the same molecule, the GI50 (PC-3) was > 100 µM (inactive), the GI50 (RPMI-8226) was > 100 µM (inactive) and the GI50 (MDA-N) was > 100 µM (inactive). The GI50 (MDA-MB-231) was > 100 µM (inactive), the GI50 (SK-OV-3) was > 100 µM (inactive) and the GI50 (SF-268) was > 100 µM (inactive). For the same molecule, the GI50 (MDA-MB-435) was > 100 µM (inactive), the GI50 (COLO 205) was > 100 µM (inactive) and the GI50 (NCI-H522) was > 100 µM (inactive). The GI50 (UACC-257) was > 100 µM (inactive), the GI50 (A549) was > 100 µM (inactive) and the GI50 (CAKI-1) was > 100 µM (inactive). The GI50 (ACHN) was > 100 µM (inactive), the GI50 (IGROV-1) was > 100 µM (inactive) and the GI50 (OVCAR-8) was > 100 µM (inactive). The GI50 (MOLT-4) was > 100 µM (inactive), the GI50 (Malme-3M) was > 100 µM (inactive) and the GI50 (MCF7) was > 100 µM (inactive). The GI50 (OVCAR-3) was > 100 µM (inactive), the GI50 (RXF 393) was > 100 µM (inactive) and the GI50 (HOP-62) was > 100 µM (inactive). The GI50 (TK-10) was > 100 µM (inactive), the GI50 (786-0) was > 100 µM (inactive) and the GI50 (SK-MEL-2) was > 100 µM (inactive). The GI50 (LOX IMVI) was > 100 µM (inactive), the GI50 (SNB-19) was > 100 µM (inactive) and the GI50 (SR) was > 100 µM (inactive). The GI50 (M14) was > 100 µM (inactive), the GI50 (T47D) was > 100 µM (inactive) and the GI50 (OVCAR-4) was > 100 µM (inactive). The GI50 (U-251) was > 100 µM (inactive), the GI50 (CCRF-CEM) was > 100 µM (inactive) and the GI50 (UACC-62) was > 100 µM (inactive). The GI50 (HL-60) was > 100 µM (inactive), the GI50 (HCT-15) was over 100 µM and the GI50 (NCI/ADR-RES) was > 100 µM (inactive). The GI50 (OVCAR-5) was > 100 µM (inactive), the GI50 (HCC 2998) was > 100 µM (inactive) and the GI50 (UO-31) was > 100 µM (inactive). The GI50 (HT-29) was > 100 µM (inactive), the GI50 (HOP-92) was > 100 µM (inactive) and the GI50 (A498) was 91.6 µM (inactive). The GI50 (SW-620) was > 100 µM (inactive), the GI50 (SNB-75) was > 100 µM (inactive) and the GI50 (NCI-H23) was > 100 µM (inactive). For the same molecule, the GI50 (BT-549) was > 100 µM (inactive), the GI50 (EKVX) was > 100 µM (inactive) and the GI50 (SK-MEL-5) was > 100 µM (inactive). For the same molecule, the GI50 (Hs-578T) was > 100 µM (inactive), the GI50 (SF-539) was > 100 µM (inactive) and the GI50 (SK-MEL-28) was > 100 µM (inactive). For the same molecule, the GI50 (KM12) was > 100 µM (inactive), the GI50 (HCT-116) was > 100 µM (inactive) and the GI50 (SF-295) was > 100 µM (inactive).

From ChEMBL document CHEMBL1201862, “PubChem BioAssay data set” (2004)
